Laboratory results reported in US7524517B2, “Methods and compositions for P2X receptor calcium entry channels and other calcium entry mechanisms” (UAB Research Foundation, priority 2003, dated 2009).
Entries after “also recorded” stand apart in the source; their conditions may differ.

How the values were obtained:
[1] = system: non-mucoid and mucoid Pseudomonas aeruginosa; assay: Bacterial growth in liquid LB medium and on LB-agar plates; assay type: cell-based
calcium entry channels = assay: Fura-2 fluorescence ratio, sustained calcium entry signals in mammalian cells (FIG. 19C); assay type: cell-based
[2] = system: P2X receptor Ca^2+ entry channels; assay: Fura-2/AM fluorescence imaging of cytosolic Ca2+ in IB3-1 CF airway epithelial cells; assay type: cell-based, human
INS-1 cells = assay: ELISA of insulin secretion from INS-1 cells; assay type: cell-based, rat; conditions: 15 seconds to 120 minutes after stimulation
ENaC [3] = biological target: T1, ENaC (Mus musculus, UniProt Q61180+Q9WU38+Q9WU39); assay: In vivo nasal potential difference, ENaC-mediated Na+ absorption
T1 construct: from tissue; host or cells: nasal mucosa of living control, Cincinnati bitransgenic CF and delF508 CF mice
T1 sequence (Q61180 1-699): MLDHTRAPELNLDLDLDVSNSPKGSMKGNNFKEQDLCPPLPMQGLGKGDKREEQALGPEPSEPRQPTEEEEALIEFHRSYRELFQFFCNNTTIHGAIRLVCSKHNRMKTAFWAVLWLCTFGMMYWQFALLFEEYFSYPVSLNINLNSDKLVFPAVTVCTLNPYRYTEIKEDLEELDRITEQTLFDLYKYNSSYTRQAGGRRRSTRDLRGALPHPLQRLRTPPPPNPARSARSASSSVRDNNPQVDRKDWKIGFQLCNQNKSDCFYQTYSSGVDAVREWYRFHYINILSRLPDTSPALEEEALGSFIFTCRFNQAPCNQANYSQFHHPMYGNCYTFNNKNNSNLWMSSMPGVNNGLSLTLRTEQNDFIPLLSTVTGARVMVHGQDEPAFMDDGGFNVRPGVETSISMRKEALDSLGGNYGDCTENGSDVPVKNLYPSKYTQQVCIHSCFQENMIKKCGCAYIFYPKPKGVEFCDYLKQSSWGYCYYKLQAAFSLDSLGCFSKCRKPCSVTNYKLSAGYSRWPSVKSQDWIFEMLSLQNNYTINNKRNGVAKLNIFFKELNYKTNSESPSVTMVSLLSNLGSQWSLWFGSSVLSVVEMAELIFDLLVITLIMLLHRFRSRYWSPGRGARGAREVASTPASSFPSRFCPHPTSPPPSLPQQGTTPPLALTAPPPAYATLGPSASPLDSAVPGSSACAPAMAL
T1 sequence (Q9WU38 1-638): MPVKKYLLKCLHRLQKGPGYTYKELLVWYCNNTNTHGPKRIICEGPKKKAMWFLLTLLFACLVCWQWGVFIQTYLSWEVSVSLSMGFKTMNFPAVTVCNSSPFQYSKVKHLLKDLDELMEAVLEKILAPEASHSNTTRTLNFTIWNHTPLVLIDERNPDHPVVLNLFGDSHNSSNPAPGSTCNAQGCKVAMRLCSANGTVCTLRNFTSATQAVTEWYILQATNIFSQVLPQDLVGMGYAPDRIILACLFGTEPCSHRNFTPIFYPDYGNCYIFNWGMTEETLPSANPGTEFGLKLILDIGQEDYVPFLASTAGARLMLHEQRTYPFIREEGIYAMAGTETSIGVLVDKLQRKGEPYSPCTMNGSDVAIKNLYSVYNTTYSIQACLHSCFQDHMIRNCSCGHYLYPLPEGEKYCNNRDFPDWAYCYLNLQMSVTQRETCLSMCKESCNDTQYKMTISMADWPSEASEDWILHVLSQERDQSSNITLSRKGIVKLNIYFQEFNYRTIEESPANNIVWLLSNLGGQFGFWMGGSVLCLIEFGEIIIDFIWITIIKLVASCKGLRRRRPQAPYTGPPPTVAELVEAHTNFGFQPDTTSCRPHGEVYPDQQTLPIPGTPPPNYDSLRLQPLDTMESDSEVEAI
T1 sequence (Q9WU39 1-655): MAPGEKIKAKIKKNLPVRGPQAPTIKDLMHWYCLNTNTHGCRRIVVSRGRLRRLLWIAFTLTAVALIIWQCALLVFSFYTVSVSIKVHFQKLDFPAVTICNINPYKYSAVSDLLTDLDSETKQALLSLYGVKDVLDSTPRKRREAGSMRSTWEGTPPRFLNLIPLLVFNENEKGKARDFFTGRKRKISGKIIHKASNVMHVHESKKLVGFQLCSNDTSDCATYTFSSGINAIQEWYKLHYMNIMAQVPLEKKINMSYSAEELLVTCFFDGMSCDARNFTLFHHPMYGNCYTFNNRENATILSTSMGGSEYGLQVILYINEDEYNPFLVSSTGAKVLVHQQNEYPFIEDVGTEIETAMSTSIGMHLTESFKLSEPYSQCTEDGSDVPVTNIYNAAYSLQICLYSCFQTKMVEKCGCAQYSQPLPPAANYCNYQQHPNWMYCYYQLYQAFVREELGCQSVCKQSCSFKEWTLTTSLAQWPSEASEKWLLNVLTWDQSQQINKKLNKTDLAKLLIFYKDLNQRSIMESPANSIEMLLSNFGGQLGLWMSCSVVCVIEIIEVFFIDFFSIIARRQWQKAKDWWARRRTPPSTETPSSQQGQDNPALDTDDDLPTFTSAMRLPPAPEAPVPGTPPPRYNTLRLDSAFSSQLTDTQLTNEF

ENaC [4] = biological target: T1, ENaC; assay: Ussing chamber / voltohmmeter recordings of ENaC-mediated Na+ absorption in airway and PKD collecting duct monolayers; assay type: cell-based; conditions: for concentrations required for inhibition in ISC recordings / doses inhibitory in PD assays: ARPKD sodium hyperabsorption; for doses inhibitory in PD assays: VTE/PD
IB3-1 CF cells = assay: SPQ halide fluorescence assay of Cl- efflux; assay type: cell-based, human; conditions: Na+- and Mg2+-free vehicle, 3 mM Ca2+, pH 7.9
Method: Modifications to this method involved the use of NaCl at the beginning and end of protocols. Agonists were tested in NMDGNO3-containing solution (as above for Ca^2+ assays).
In our modified saline vehicle that was devoid of Na+ and Mg^2+ and enriched in Ca^2+ (3 mM) along with modifications in the halides (Cl− substituted with iodide to quench the SPQ dye and nitrate to unquench), ATP plus zinc or zinc alone was added to IB3-1 CF cells and halide efflux was rescued in these cells. The effects were dependent upon an alkaline extracellular pH (pH 7.9) and the presence of extracellular Ca^2+. In essence, the rescue of Cl− transport (measured with a different halide in this case) was dependent upon the same chemical conditions as the zinc-induced Ca^2+ entry.

[5] = system: INS-1 rat pancreatic β cells; assay: Fura-2 fluorescence assay of cell calcium in INS-1 cells; assay type: cell-based; conditions: Na+- and Mg2+-free Ringer, zinc alone 1-50 micromolar
Method: Cytosolic Ca^2+ concentration was measured with dual excitation wavelength fluorescence microscopy (Deltascan, Photon Technologies, Princeton, N.J.) after cells were loaded with the permeant form of the fluorescence dye, Fura-2-acetoxymethyl ester (Fura-2-AM; Teflabs, Austin, Tex., USA). Fura-2 fluorescence was measured at an emission wavelength of 510 nm in response to excitation wavelength of 340 nm and 380 nm, alternated at a rate of 50 Hz by a computer-controlled chopper assembly. Ratios (340 nm/380 nm) were calculated at a […] using PTI software. Cells were incubated in Dulbecco's phosphate buffered saline containing 2 mM CaCl2 and 1 mM MgCl2 in the presence of 5 μM Fura2-AM and 1 mg/ml Pluronic F-127 dissolved in DMSO for 120 min to allow loading of the dye into the cells. After loading, coverslips were rinsed at least for 10 min in Dulbecco's phosphate buffered saline to remove extracellular Fura 2-AM and the surfactant, and were positioned in the cuvette at a 45° angle from the excitation light. […] Fluorescence intensities at both wavelengths were assessed and only those preparations in which there were >200,000 counts/s for both wavelengths were used for experiments. At the beginning of each experiment, cells were perfused with solution A (see below) and the fluorescence ratio was monitored for at least 100 sec to establish a stable baseline value. […]

[6] = system: Cl− transport across the nasal mucosa; assay: In vivo nasal potential difference, rescue of Cl- secretion; parameters: species or system mouse; conditions: CF mice

O=S(=O)([O-])[O-].O=S(=O)([O-])[O-].O=S(=O)([O-])[O-].[Fe+3].[Fe+3] [Ferric iron, ferric sulfate]
growth, iron competition experiment [1]: enhanced growth significantly

C/C=C(/C)C(=O)O[C@H]1C(C)=C2[C@H]([C@@H]1OC(=O)CCCCCCC)[C@@](C)(OC(C)=O)C[C@H](OC(=O)CCC)[C@@]1(O)[C@H]2OC(=O)[C@@]1(C)O [thapsigargin]
Fura-2 fluorescence ratio, transient peak (store-operated calcium channels) (calcium entry channels; thapsigargin 100 nM, ER store depletion and re-addition of extracellular calcium): 3.0 | effect on zinc-induced Ca2+ transients ([2]; thapsigargin pretreatment, Ca2+-free medium): abolished

ferrous sulfate
growth, iron competition experiment [1]: inhibit

ivermectin
effect on zinc and/or ATP induced manganese or calcium entry ([2]; included with ATP and/or zinc, Fura-2 quenching and direct Fura-2 assays): potentiated

C[C@H](CCC(=O)O)C[C@H](C)C[C@H](C)C(=O)/C=C(\O)[C@H](C)C[C@H](C)C/C=C/[C@@H](C)[C@@H](O)[C@@H](C)[C@@H](O)C[C@@H]1CC[C@@](C)([C@H]2CC[C@@](C)([C@@H](C)O)O2)O1 [ionomycin]
Fura-2 fluorescence ratio, sustained (calcium entry channels; ionomycin 2 μM): 3.4

[Zn+2] [zinc]
insulin secretion versus glucose stimulus (INS-1 cells): even more potent stimulus than glucose | Fura-2 fluorescence ratio, sustained calcium entry (calcium entry channels; Na+ free conditions, pH 7.9): 2.1 | depolarization of NPD (ENaC [3]; Cincinnati bitransgenic CF mouse): ~10 mV | depolarization of NPD (ENaC [3]; control mouse, NaCl-replete lactated Ringer): 3-4 mV | depolarization of NPD (ENaC [3]; deIF508 CF mouse): 6-7 mV | concentrations required for inhibition in ISC recordings (ENaC [4]): Millimolar | doses inhibitory in PD assays (ENaC [4]): mid-micromolar | concentration range inhibiting ENaC (ENaC [4]; Ussing chamber recordings): 50 to 100 µM | IC50 ([1]; read-out: IC50, bacterial growth inhibition): 1000 to 5000 µM | halide efflux / Cl- permeability in CF cells (IB3-1 CF cells): rescued | zinc-induced increases in Ca2+ ([2]; Ca2+-free medium): small and transient | effect on cell calcium / Ca2+ entry [5]: further sustained increase in Ca^2+ entry; also recorded: small transient increase above the sustained plateau

[Cl-].[Cl-].[Zn+2] [ZnCl2, zinc chloride]
halide efflux / Cl- permeability in CF cells (IB3-1 CF cells): restored Cl− permeability

[Ni] [nickel, reference compound]
concentrations required for inhibition in ISC recordings (ENaC [4]): Millimolar | doses inhibitory in PD assays (ENaC [4]): mid-micromolar

CC(C)NCC(O)c1ccc(O)c(O)c1 (centres unmarked) [isoproterenol]
effect on nasal PD [6]: without effect

[Cu] [copper]
effect on zinc effects (Ca2+ entry) [2]: competitively inhibit
